Results: paper PMC5091913, “Identification and Validation of Small-Gatekeeper Kinases as Drug Targets in Giardia lamblia” (PLoS Neglected Tropical Diseases, 2016)
Where two headings read alike, the source gives them in different places.

Tests used:
Gl50803_8445 = biological target: T1, Gl50803_8445 (Giardia duodenalis, UniProt A8BXP9); experiment: thermal shift assay; assay type: binding; conditions: also printed as 2°–3°
T1 construct: gene GL50803_008445
T1 sequence (A8BXP9 1-597): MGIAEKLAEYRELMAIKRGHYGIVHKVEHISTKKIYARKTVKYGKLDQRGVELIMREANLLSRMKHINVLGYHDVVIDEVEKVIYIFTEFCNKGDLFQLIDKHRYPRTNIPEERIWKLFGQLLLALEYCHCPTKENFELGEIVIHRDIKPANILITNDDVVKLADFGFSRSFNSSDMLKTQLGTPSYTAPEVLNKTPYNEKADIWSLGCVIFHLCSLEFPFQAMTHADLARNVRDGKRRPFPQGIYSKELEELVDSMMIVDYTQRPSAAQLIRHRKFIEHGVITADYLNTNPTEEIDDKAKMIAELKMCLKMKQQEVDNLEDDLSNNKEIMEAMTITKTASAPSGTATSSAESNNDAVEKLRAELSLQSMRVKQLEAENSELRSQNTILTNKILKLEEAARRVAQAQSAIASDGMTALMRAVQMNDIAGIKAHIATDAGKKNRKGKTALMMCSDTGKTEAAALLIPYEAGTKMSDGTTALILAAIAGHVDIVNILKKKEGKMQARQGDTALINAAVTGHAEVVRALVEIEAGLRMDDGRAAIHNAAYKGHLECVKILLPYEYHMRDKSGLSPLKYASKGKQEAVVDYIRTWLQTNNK

Gl50803_16034 = biological target: T2, Gl50803_16034 (Giardia duodenalis, UniProt A8BHW1); experiment: thermal shift assay; assay type: binding
T2 construct: gene GL50803_0016034
T2 sequence (A8BHW1 1-432): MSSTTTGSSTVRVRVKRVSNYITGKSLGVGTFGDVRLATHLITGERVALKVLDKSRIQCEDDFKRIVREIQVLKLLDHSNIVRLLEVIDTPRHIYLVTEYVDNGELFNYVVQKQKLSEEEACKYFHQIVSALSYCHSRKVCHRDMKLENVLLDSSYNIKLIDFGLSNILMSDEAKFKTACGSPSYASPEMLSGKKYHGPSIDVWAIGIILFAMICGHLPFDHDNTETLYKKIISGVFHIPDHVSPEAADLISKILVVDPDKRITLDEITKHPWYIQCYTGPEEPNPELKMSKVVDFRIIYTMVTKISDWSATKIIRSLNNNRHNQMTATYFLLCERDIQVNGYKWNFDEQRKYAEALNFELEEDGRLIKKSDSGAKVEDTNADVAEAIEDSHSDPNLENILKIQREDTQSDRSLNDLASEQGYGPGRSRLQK

| Structure (SMILES) | ΔTm (Gl50803_8445) | ΔTm (Gl50803_16034; also printed as 2°–3°) | ΔTm (Gl50803_16034) |
| --- | --- | --- | --- |
| CCOc1ccc2cc(-c3nc(C(C)(C)C)n4ccnc(N)c34)ccc2c1 [compound 1213, 1213] | ~ 3 ° | ~ 3 ° | – |
| Nc1ncnc2c1c(-c1ccc3nc(-c4ccccc4)oc3c1)nn2CC1CCNCC1 [compound 1264, 1264] | – | – | 6.5 ° |
| Nc1ncnc2c1c(-c1ccc(-c3ccccc3)cc1)nn2CC1CCNCC1 [compound 1244, 1244] | – | – | 5.2 ° |
